From patent US20030162778A1, “Carbocyclic side chain containing metalloprotease inhibitors” (The Procter and Gamble Company, priority 2000, published 2003) come the findings set out here.

Assay [1] relates to patient having deep corneal abrasion. Kind of assay: Example C: saline-based drops for a patient having deep corneal abrasion. The assay is classed as in vivo, human. The conditions noted are these: 5% w/w drop to each eye twice a day. An excerpt:
A saline-based composition for local administration, according to the present invention, is made comprising:
A patient having deep corneal abrasion applies the drop to each eye twice a day.

In assay [2] the test system is human subject suffering from osteoarthritis. Kind of assay: Example B: capsule given to a human subject suffering from osteoarthritis. The assay is classed as in vivo. The conditions noted are these: capsule containing 70 mg daily for 5 years, 90 kg person. As for the experimental part:
A capsule for oral administration, according to the present invention, is made comprising:
A human subject weighing 90 kg (198 lbs.), suffering from osteoarthritis, is treated by a method of this invention. Specifically, for 5 years, a capsule containing 70 mg of the compound of Example 3 is administered daily to said subject.

For assay [3], the system named is patient suffering from chemical burns. Kind of assay: Example D: topical composition for a patient suffering from chemical burns. It is filed as in vivo, human. The conditions noted are these: 0.20% w/v topical composition at each dressing change (b.i.d.). The text has this:
A topical composition for local administration, according to the present invention, is made comprising:
A patient suffering from chemical burns applies the composition at each dressing change (b.i.d.).

Assay [4] deals with human subject suffering from rheumatoid arthritis. Kind of assay: Example A: tablet given to a human subject suffering from rheumatoid arthritis. The conditions noted are these: three tablets (15 mg compound each) per day orally for 2 years, 60 kg person. It is filed as in vivo. As for the experimental part:
A tablet composition for oral administration, according to the present invention, is made comprising:
A human subject weighing 60 kg (132 lbs), suffering from rheumatoid arthritis, is treated by a method of this invention. Specifically, for 2 years, a regimen of three tablets per day is administered orally to said subject.

The test system of assay [5] is human subject with a premetastatic tumor. Kind of assay: Example G: parenteral suspension injected next to a premetastatic tumor. It is filed as in vivo. The conditions noted are these: about 2.0 mL of 100 mg/mL suspension injected beside the tumor twice daily; after 30 days. As for the experimental part:
A composition for parenteral administration is made comprising:
The above ingredients are mixed, forming a suspension. Approximately 2.0 mL of the suspension is administered, via injection, to a human subject with a premetastatic tumor. The injection site juxtaposes the tumor. This dosage is repeated twice daily, for approximately 30 days.

Assay [6] has as its system asthma sufferer. Kind of assay: Example E: inhalation aerosol for an asthma sufferer. It is filed as in vivo, human. The conditions noted are these: 5.0% w/v aerosol, 0.01 mL sprayed into the mouth while inhaling. As for the experimental part: An inhalation aerosol composition, according to the present invention, is made comprising: [table] An asthma sufferer sprays 0.01 mL via a pump actuator into the mouth while inhaling. Asthma symptoms are diminished.

Each structure is given as a SMILES string.

For `COc1ccc(-c2ccc(S(=O)(=O)NC(C(=O)O)C3CCC(O)CC3)cc2)cc1` (centres unmarked) [Example 1, N-{[4′-Methoxy-(1,1′-biphenyl)-4-yl]-sulfonylamino}-(4-hydroxycyclohexan-1-yl)-acetic Acid], in assay [1], the “healing of deep corneal abrasion” value is listed as “speeded” and the visual sequelae entry is recorded as “no visual sequelae”.

`O=C(O)[C@H](NS(=O)(=O)c1ccc(-c2ccc(Br)cc2)cc1)C1CCC2(CC1)OCCCO2` [Example 3, (R)-N-{[4′-bromo-(1,1′-biphenyl)-4-yl]-sulfonyl}-amino-(1,5-dioxa-spiro[5.5]undec-9-yl)-acetic]: in assay [2], the “advancement of erosion/fibrillation of the articular cartilage (x-ray, arthroscopy and/or MRI)” value was “no further advancement”. The scarring result in assay [3] was “substantially diminished”.

For the compound `COc1ccc(-c2ccc(S(=O)(=O)NC(C(=O)O)C3CCCC(N(Cc4ccccc4)S(C)(=O)=O)C3)cc2)cc1` (centres unmarked) [Example 31, N-{[4′-methoxy-(1,1′-biphenyl)-4-yl]-sulfonyl}-amino-[3-(N-benzyl-N-methanesulfonylamino)-cyclohexan-1-yl]-acetic acid], in assay [4], the “inflammation at the end of the treatment period” value is “reduced inflammation” and the “mobility at the end of the treatment period” value is “improved mobility without concomitant pain”. The “symptoms of the disease” value in assay [5] is “subside”.

With `COc1ccc(-c2ccc(S(=O)(=O)NC(C(=O)O)C3CCCC(N(C)C(C)=O)C3)cc2)cc1` (centres unmarked) [Example 33, N-{[4′-methoxy-(1,1-biphenyl)-4-yl]-sulfonyl}-amino-[3-(N-methyl-N-acetylamino)-cyclohexan-1-yl]-acetic Acid], the asthma symptoms entry in assay [6] was “diminished”.
